Laboratory results taken from patent US12110299B2, “Thiazole derivatives and pharmaceutically acceptable salts thereof” (YUNGJIN PHARM. CO., LTD., priority 2018, dated 2024).

What was measured:
MDA-MB-468 cells = assay: Anti-proliferative effect on MDA-MB-468 cells, IC50 (MTT); assay type: cell-based; conditions: Homo sapiens, MDA-MB-468, 72 h
Description: The compounds of the present invention were tested at different concentrations (from 1000 nM to 1 nM) to assess their ability for inhibiting the proliferation of MDAMB-468 cells. Cells were cultivated in RPMI 1640 (Welgene)+10% FBS (Gibco)+1% penicillin/streptomycin (Gibco) and cultured at 37° C. in a humidified chamber in the presence of 5% C02.
MDA-MB-468 cells cultured in 96-well cell culture plates were treated with the compounds of the present invention and incubated for 72 hours.

HepG2 cells = assay: HepG2 cell viability assay (CCK-8); assay type: cell-based, human; conditions: Homo sapiens, HepG2, 72 h
Description: The ability to inhibit the proliferation of HepG2 cells, which are human hepatocellular carcinoma cells, was measured through the in vitro cell viability assay. Cells were cultured at 37° C. in a humidified condition in the presence of 5% CO2 using a culture medium of MEM (Welgene)+10% FBS (Gibco)+1% penicillin/streptomycin (Gibco). […] Cell viability was measured by CCK-8 method using tetrazolium salt, and the ability of the compounds according to the present invention to inhibit cancer cell proliferation was calculated.

| Compound | IC50 (MDA-MB-468 cells) | IC50 (HepG2 cells) |
| --- | --- | --- |
| C[C@H](C(=O)Nc1ncc(Cl)s1)c1cccc(-c2cnc(NC(=O)/C=C/CN3CC4CC3CO4)cn2)c1 (stereo partly drawn) [Example 94, (E)-4-(2-oxa-5-azabicyclo[2.2.1]heptan-5-yl)-N-(5-(3-((S)-1-((5-chlorothiazol-2-yl)amino)-1-oxopropan-2-yl)phenyl)pyrazin-2-yl)but-2-enamide] | 59 nM | 25 nM |
| C=CC(=O)Nc1ncc(-c2cccc([C@H](C)C(=O)Nc3ncc(C(F)(F)F)s3)c2)cc1C#N [Example 124, (S)-N-(3-cyano-5-(3-(1-oxo-1-((5-(trifluoromethyl)thiazol-2-yl)amino)propan-2-yl)phenyl)pyridin-2-yl)acrylamide] | 40 nM |  |
| COC[C@@H]1CCCN1C/C=C/C(=O)Nc1cnc(-c2cccc([C@H](C)C(=O)Nc3ncc(C(F)(F)F)s3)c2)cn1 [Example 118, (E)-4-((S)-2-(methoxymethyl)pyrrolidin-1-yl)-N-(5-(3-((S)-1-oxo-1-((5-(trifluoromethyl)thiazol-2-yl)amino)propan-2-yl)phenyl)pyrazin-2-yl)but-2-enamide] | 47 nM |  |
| CCc1cnc(NC(=O)[C@@H](C)c2cccc(-c3cnc(N(C)C(=O)/C=C/CN(C)C)c(C#N)c3)c2)s1 [Example 132, (S,E)-N-(3-cyano-5-(3-(1-((5-ethylthiazol-2-yl)amino)-1-oxopropan-2-yl)phenyl)pyridin-2-yl)-4-(dimethylamino)-N-methylbut-2-enamide] | 32 nM | 9.5 nM |
| C[C@H](C(=O)Nc1ncc(C(F)(F)F)s1)c1cccc(-c2cnc(NC(=O)/C=C/CN3CCCC3)cn2)c1 [Example 102, (S,E)-N-(5-(3-(1-oxo-1-((5-(trifluoromethyl)thiazol-2-yl)amino)propan-2-yl)phenyl)pyrazin-2-yl)-4-(pyrrolidin-1-yl)but-2-enamide] | 57 nM | 13 nM |
| C[C@H](C(=O)Nc1ncc(C(F)(F)F)s1)c1cccc(-c2cnc(NC(=O)/C=C/CN3CC[C@@H](F)C3)cn2)c1 [Example 115, (E)-4-((R)-3-fluoropyrrolidin-1-yl)-N-(5-(3-((S)-1-oxo-1-((5-(trifluoromethyl)thiazol-2-yl)amino)propan-2-yl)phenyl)pyrazin-2-yl)but-2-enamide] | 75 nM | 12 nM |
| C[C@H](C(=O)Nc1ncc(C(F)(F)F)s1)c1cccc(-c2cnc(NC(=O)/C=C/CN3CCCCC3)cn2)c1 [Example 120, (S,E)-N-(5-(3-(1-oxo-1-((5-(trifluoromethyl)thiazol-2-yl)amino)propan-2-yl)phenyl)pyrazin-2-yl)-4-(piperidin-1-yl)but-2-enamide] | 51 nM |  |
| C[C@H](C(=O)Nc1ncc(C(F)(F)F)s1)c1cccc(-c2cnc(NC(=O)/C=C/CN3CCOCC3)cn2)c1 [Example 92, (S,E)-4-morpholino-N-(5-(3-(1-oxo-1-((5-(trifluoromethyl)thiazol-2-yl)amino)propan-2-yl)phenyl)pyrazin-2-yl)but-2-enamide] | 52 nM | 74 nM |
| C[C@H](C(=O)Nc1ncc(C(F)(F)F)s1)c1cccc(-c2cnc(NC(=O)/C=C/CN3CC4CC3CO4)cn2)c1 (stereo partly drawn) [Example 96, (E)-4-(2-oxa-5-azabicyclo[2.2.1]heptan-5-yl)-N-(5-(3-((S)-1-oxo-1-((5-(trifluoromethyl)thiazol-2-yl)amino)propan-2-yl)phenyl)pyrazin-2-yl)but-2-enamide] | 68 nM | 19 nM |
| CCc1cnc(NC(=O)[C@@H](C)c2cccc(-c3cnc(NC(=O)/C=C/CN4CCOCC4)c(C#N)c3)c2)s1 [Example 135, (S,E)-N-(3-cyano-5-(3-(1-((5-ethylthiazol-2-yl)amino)-1-oxopropan-2-yl)phenyl)pyridin-2-yl)-4-morpholinobut-2-enamide] | 48 nM | 10 nM |
| CC(C(=O)Nc1ncc(C(F)(F)F)s1)c1cncc(-c2cnc(NC(=O)/C=C/CN3CC4CC3CO4)cn2)c1 (centres unmarked) [Example 83, (E)-4-(2-oxa-5-azabicyclo[2.2.1]heptan-5-yl)-N-(5-(5-(1-oxo-1-((5-(trifluoromethyl)thiazol-2-yl)amino)propan-2-yl)pyridin-3-yl)pyrazin-2-yl)but-2-enamide] | 21 nM | 3 nM |
| CCc1cnc(NC(=O)[C@@H](C)c2cccc(-c3cnc(NC(=O)/C=C/CN4CC5CC4CO5)c(C#N)c3)c2)s1 (stereo partly drawn) [Example 123, (E)-4-(2-oxa-5-azabicyclo[2.2.1]heptan-5-yl)-N-(3-cyano-5-(3-((S)-1-((5-ethylthiazol-2-yl)amino)-1-oxopropan-2-yl)phenyl)pyridin-2-yl)but-2-enamide] | 24 nM | 11 nM |

Next, values leading:

| IC50 (MDA-MB-468 cells) | IC50 (HepG2 cells) | Compound |
| --- | --- | --- |
|  | 3.1 nM | CC(C(=O)Nc1ncc(C(F)(F)F)s1)c1cncc(-c2ccc(NC(=O)/C=C/CN(C)C)nc2)c1 (centres unmarked) [Example 107, (E)-4-(dimethylamino)-N-(5′-(1-oxo-1-((5-(trifluoromethyl)thiazol-2-yl)amino)propan-2-yl)-[3,3′-bipyridin]-6-yl)but-2-enamide] |
| 47 nM | 18 nM | CCc1cnc(NC(=O)C(C)c2cncc(-c3cnc(NC(=O)/C=C/CN(C)C)c(C#N)c3)c2)s1 (centres unmarked) [Example 137, (E)-N-(5-cyano-5′-(1-((5-ethylthiazol-2-yl)amino)-1-oxopropan-2-yl)-[3,3′-bipyridin]-6-yl)-4-(dimethylamino)but-2-enamide] |
| 68 nM | 14 nM | C[C@H](C(=O)Nc1ncc(C(F)(F)F)s1)c1cccc(-c2cnc(NC(=O)/C=C/CN3CCC3)cn2)c1 [Example 103, (S,E)-4-(azetidin-1-yl)-N-(5-(3-(1-oxo-1-((5-(trifluoromethyl)thiazol-2-yl)amino)propan-2-yl)phenyl)pyrazin-2-yl)but-2-enamide] |
| 31 nM | 2.6 nM | COc1nc(-c2cccc([C@H](C)C(=O)Nc3ncc(C(F)(F)F)s3)c2)cnc1NC(=O)/C=C/CN(C)C [Example 109, (S,E)-4-(dimethylamino)-N-(3-methoxy-5-(3-(1-oxo-1-((5-(trifluoromethyl)thiazol-2-yl)amino)propan-2-yl)phenyl)pyrazin-2-yl)but-2-enamide] |
| 59 nM | 8.7 nM | Cc1cc(-c2cccc([C@H](C)C(=O)Nc3ncc(C(F)(F)F)s3)c2)cnc1NC(=O)/C=C/CN(C)C [Example 112, (S,E)-4-(dimethylamino)-N-(3-methyl-5-(3-(1-oxo-1-((5-(trifluoromethyl)thiazol-2-yl)amino)propan-2-yl)phenyl)pyridin-2-yl)but-2-enamide] |
| 56 nM | 8 nM | COc1cc(-c2cccc([C@H](C)C(=O)Nc3ncc(C(F)(F)F)s3)c2)cnc1NC(=O)/C=C/CN(C)C [Example 100, (S,E)-4-(dimethylamino)-N-(3-methoxy-5-(3-(1-oxo-1-((5-(trifluoromethyl)thiazol-2-yl)amino)propan-2-yl)phenyl)pyridin-2-yl)but-2-enamide] |
| 65 nM |  | CC(C(=O)Nc1ncc(C(F)(F)F)s1)c1cncc(-c2cnc(NC(=O)/C=C/CN3CCOCC3)cn2)c1 (centres unmarked) [Example 74, (E)-4-morpholino-N-(5-(5-(1-oxo-1-((5-(trifluoromethyl)thiazol-2-yl)amino)propan-2-yl)pyridin-3-yl)pyrazin-2-yl)but-2-enamide] |
| 74 nM | 17.4 nM | C[C@H](C(=O)Nc1ncc(C(F)(F)F)s1)c1cccc(-c2cnc3c(c2)CCN3C(=O)/C=C/CN(C)C)c1 [Example 110, (S,E)-2-(3-(1-(4-(dimethylamino)but-2-enoyl)-2,3-dihydro-1H-pyrrolo[2,3-b]pyridin-5-yl)phenyl)-N-(5-(trifluoromethyl)thiazol-2-yl)propanamide] |
| 23 nM | 5 nM | C[C@H](C(=O)Nc1ncc(C(F)(F)F)s1)c1cccc(-c2cnc(NC(=O)/C=C/CN(C)C)c(F)c2)c1 [Example 99, (S,E)-4-(dimethylamino)-N-(3-fluoro-5-(3-(1-oxo-1-((5-(trifluoromethyl)thiazol-2-yl)amino)propan-2-yl)phenyl)pyridin-2-yl)but-2-enamide] |
| 39 nM | 11 nM | C[C@H](C(=O)Nc1ncc(C(F)(F)F)s1)c1cccc(-c2cnc(NC(=O)/C=C/CN(C)C)cn2)c1 [Example 81, (S,E)-4-(dimethylamino)-N-(5-(3-(1-oxo-1-((5-(trifluoromethyl)thiazol-2-yl)amino)propan-2-yl)phenyl)pyrazin-2-yl)but-2-enamide] |
| 56 nM | 12 nM | CCN(CC)C/C=C/C(=O)Nc1cnc(-c2cccc([C@H](C)C(=O)Nc3ncc(C(F)(F)F)s3)c2)cn1 [Example 114, (S,E)-4-(diethylamino)-N-(5-(3-(1-oxo-1-((5-(trifluoromethyl)thiazol-2-yl)amino)propan-2-yl)phenyl)pyrazin-2-yl)but-2-enamide] |
| 32 nM | 4 nM | C=CC(=O)Nc1ccc(-c2cncc(C(C)C(=O)Nc3ncc(C(F)(F)F)s3)c2)cn1 (centres unmarked) [Example 82, N-(5′-(1-oxo-1-((5-(trifluoromethyl)thiazol-2-yl)amino)propan-2-yl)-[3,3′-bipyridin]-6-yl)acrylamide] |
| 31 nM | 4.6 nM | CC(C(=O)Nc1ncc(C(F)(F)F)s1)c1cncc(-c2cnc(NC(=O)/C=C/CN(C)C)c(C#N)c2)c1 (centres unmarked) [Example 108, (E)-N-(5-cyano-5′-(1-oxo-1-((5-(trifluoromethyl)thiazol-2-yl)amino)propan-2-yl)-[3,3′-bipyridin]-6-yl)-4-(dimethylamino)but-2-enamide] |
| 35 nM | 4.2 nM | C[C@H](C(=O)Nc1ncc(C(F)(F)F)s1)c1cccc(-c2cnc(NC(=O)/C=C/CN(C)C)c(Cl)c2)c1 [Example 113, (S,E)-N-(3-chloro-5-(3-(1-oxo-1-((5-(trifluoromethyl)thiazol-2-yl)amino)propan-2-yl)phenyl)pyridin-2-yl)-4-(dimethylamino)but-2-enamide] |
